Results reported in article PMC12582325 (Proceedings of the National Academy of Sciences of the …, 2025).
Values joined by “and” are separate entries in the source; they are usually repeats but may differ in a detail not shown here. Identical values can stand only once. “Also recorded” adds a separate entry of the source. Like-named read-outs stand apart in the source and are kept apart here. Where a SMILES comes first, the peptide text is derived from it.

Key:
Fg.Ste2 [1] = assay type: cell-based, Fusarium graminearum; settings: 10 μM; Control mean 6548; mean of n = 4
Fo.Ste2 [2] = assay type: cell-based, Fusarium oxysporum
Bb.Ste2 [3] = assay type: cell-based, Beauveria bassiana
Bc.Ste2 [4] = assay type: cell-based, Botrytis cinerea; settings: 10 μM
Bc.Ste2 [5] = assay type: cell-based, Botrytis cinerea; settings: for Bc.Ste2 (activation): with Bc agonist, normalised
Bc.Ste2 [6] = assay type: cell-based, Botrytis cinerea
Bb.Ste2 [7] = assay type: cell-based, Beauveria bassiana; settings: YPL1 library cocultured with Bb.Ste2 strain GEN88, 20 h, 2 d diploid enrichment, NextSeq 500
Fg.Ste2 [8] = assay type: cell-based, Fusarium graminearum; settings: YPL1 library cocultured with Fg.Ste2 strain GEN87, 20 h, 2 d diploid enrichment, NextSeq 500
Fo.Ste2 [9] = assay: YeMaP Library-on-One: YPL1 pheromone library enrichment by mating, NGS; assay type: cell-based, Fusarium oxysporum; settings: YPL1 library cocultured with Fo.Ste2 strain GEN90, 20 h, 2 d diploid enrichment, NextSeq 500
Bc.Ste2 [10] = assay type: cell-based, Botrytis cinerea; settings: YPL1 library cocultured with Bc.Ste2 strain GEN89, 20 h, 2 d diploid enrichment, NextSeq 500
Fo.Ste2 [11] = assay type: cell-based, Fusarium oxysporum; remark: listed apart in the source
Fg.Ste2 [12] = tested on: Fg.Ste2
Bb.Ste2 [13] = assay type: cell-based, Beauveria bassiana; remark: listed apart in the source
Hj.Hpr2 = assay type: cell-based, Hypocrea jecorina
[14] = tested on: no_GPCR (negative control lacking a GPCR); assay type: cell-based, Saccharomyces cerevisiae; settings: SC + added peptide, individual replicates (n=3)
Bb.Ste2 [15] = assay type: cell-based, Beauveria bassiana; settings: Bb + Cm (Bb 0.0005 μM, Cm 10 μM); Control mean 6960; mean of n = 4
Fg.Ste2 [16] = assay type: cell-based, Fusarium graminearum; settings: Fg + Cm (Fg 0.5 μM, Cm 10 μM); Control mean 6548; mean of n = 4
Fo.Ste2 [17] = assay: Yeast GPCR biosensor, cognate agonist together with candidate antagonist Cm; assay type: cell-based, Fusarium oxysporum; settings: Fo + Cm (Fo 0.5 μM, Cm 10 μM); Control mean 6141; mean of n = 4

In the case of CC(C)C[C@H](NC(=O)[C@H](CS)NC(=O)[C@@H](N)Cc1c[nH]c2ccccc12)C(=O)N[C@@H](CCCNC(=N)N)C(=O)N1CCC[C@H]1C(=O)NCC(=O)N[C@@H](CCC(N)=O)C(=O)N1CCC[C@H]1C(=O)N[C@@H](CS)C(=O)N[C@@H](Cc1c[nH]c2ccccc12)C(=O)O [Cm] (H-WCLRPGQPCW-OH; N-terminus and C-terminus assumed), the “Sup.Fig.3B Fg.Ste2 biosensor response, group mean” value (Fg.Ste2 [1]) is reported as 14826, the “Activation of Fo.Ste2 biosensor, in words” value (Fo.Ste2 [2]) is reported as “triggered the activation; also recorded: agonists for Fo.Ste2” and the Hillslope (Fo.Ste2 [2]) is reported as 1.276. For the same compound, the logEC50 (Fo.Ste2 [2]) was -6.973, the “Sup.Fig.3B Fo.Ste2 biosensor response, group mean” value (Fo.Ste2 [2]; 10 μM) was 1362500 and the “Activation of Bb.Ste2 biosensor, in words” value (Bb.Ste2 [3]) was “triggered the activation”. For the same compound, the “Sup.Fig.3B Bb.Ste2 biosensor response, group mean” value (Bb.Ste2 [3]; 10 μM) was 1237500, the “Sup.Fig.3B Bc.Ste2 biosensor response, group mean” value (Bc.Ste2 [4]) was 6819 and the “Effect on activation of Bc.Ste2 by Bc pheromone, in words” value (Bc.Ste2 [5]; 0.0005 μM Bc pheromone in combination with 10 μM peptide, four biological replicates, Fig. 2G) was “completely abolished”. For the same compound, the “Sup.Fig.3B Bc.Ste2 biosensor response, group mean” value (Bc.Ste2 [5]; Bc + Cm (Bc 0.0005 μM, Cm 10 μM), Control mean 6719, mean of n = 4) was 9961, the “Bc.Ste2 + pheromones, biosensor response, group mean” value (Bc.Ste2 [5]; Bc + the named peptide, Bc alone mean 134.8, mean of n = 4) was 1.794 and the Hillslope (Bc.Ste2 [5]; Bc.Ste2 + Cm (antagonist), four-parameter fit, best-fit value) was -289008. For the same compound, the “Excess of the antagonist compared to the agonist at IC50” value (Bc.Ste2 [5]; Bc.Ste2, 0.0005 μM Bc pheromone) was 2,000 fold, the “Bc.Ste2 (activation)” value (Bc.Ste2 [5]; Concentration 1e-6, replicate 1) was 49.9332 and the “Bc.Ste2 (activation)” value (Bc.Ste2 [5]; Concentration 1e-6, replicate 2) was 46.5053. The “Bc.Ste2 (activation)” value (Bc.Ste2 [5]; Concentration 1e-6, replicate 3) was 51.6445, the “Bc.Ste2 (activation)” value (Bc.Ste2 [5]; Concentration 1e-6, replicate 4) was 48.6418 and the “Bc.Ste2 (activation)” value (Bc.Ste2 [5]; Concentration 5e-6, replicate 1) was 5.491. For the same compound, the “Bc.Ste2 (activation)” value (Bc.Ste2 [5]; Concentration 5e-6, replicate 2) was 4.729, the “Bc.Ste2 (activation)” value (Bc.Ste2 [5]; Concentration 5e-6, replicate 3) was 4.1657 and the “Bc.Ste2 (activation)” value (Bc.Ste2 [5]; Concentration 5e-6, replicate 4) was 2.595. For the same compound, the “Bc.Ste2 (activation)” value (Bc.Ste2 [5]; Concentration 1e-5, replicate 1) was 1.904, the “Bc.Ste2 (activation)” value (Bc.Ste2 [5]; Concentration 1e-5, replicate 2) was 1.546 and the “Bc.Ste2 (activation)” value (Bc.Ste2 [5]; Concentration 1e-5, replicate 3) was 1.924. For the same compound, the “Bc.Ste2 (activation)” value (Bc.Ste2 [5]; Concentration 1e-5, replicate 4) was 1.801, the “Bc.Ste2 (activation)” value (Bc.Ste2 [5]; Concentration 1.00E-07, replicate 1) was 86.3218 and the “Bc.Ste2 (activation)” value (Bc.Ste2 [5]; Concentration 1.00E-07, replicate 2) was 95.1098. For the same compound, the “Bc.Ste2 (activation)” value (Bc.Ste2 [5]; Concentration 1.00E-07, replicate 3) was 89.2984, the “Bc.Ste2 (activation)” value (Bc.Ste2 [5]; Concentration 1.00E-07, replicate 4) was 97.6612 and the “Bc.Ste2 (activation)” value (Bc.Ste2 [5]; Concentration 1.00E-08, replicate 1) was 96.9525. For the same compound, the “Bc.Ste2 (activation)” value (Bc.Ste2 [5]; Concentration 1.00E-08, replicate 2) was 96.5273, the “Bc.Ste2 (activation)” value (Bc.Ste2 [5]; Concentration 1.00E-08, replicate 3) was 99.5039 and the “Bc.Ste2 (activation)” value (Bc.Ste2 [5]; Concentration 1.00E-08, replicate 4) was 98.7952. The “Bc.Ste2 (activation)” value (Bc.Ste2 [5]; Concentration 1.00E-09, replicate 1) was 101.063, the “Bc.Ste2 (activation)” value (Bc.Ste2 [5]; Concentration 1.00E-09, replicate 2) was 96.9525 and the “Bc.Ste2 (activation)” value (Bc.Ste2 [5]; Concentration 1.00E-09, replicate 3) was 99.9291. For the same compound, the “Bc.Ste2 (activation)” value (Bc.Ste2 [5]; Concentration 1.00E-09, replicate 4) was 101.063, the “Bc.Ste2 (activation)” value (Bc.Ste2 [5]; Concentration 5.00E-07, replicate 1) was 78.8094 and the “Bc.Ste2 (activation)” value (Bc.Ste2 [5]; Concentration 5.00E-07, replicate 2) was 64.2098. The “Bc.Ste2 (activation)” value (Bc.Ste2 [5]; Concentration 5.00E-07, replicate 3) was 79.0928, the “Bc.Ste2 (activation)” value (Bc.Ste2 [5]; Concentration 5.00E-07, replicate 4) was 82.7782 and the “Bc.Ste2 (activation)” value (Bc.Ste2 [5]; Concentration 5.00E-08, replicate 1) was 94.4011. For the same compound, the “Bc.Ste2 (activation)” value (Bc.Ste2 [5]; Concentration 5.00E-08, replicate 2) was 98.7952, the “Bc.Ste2 (activation)” value (Bc.Ste2 [5]; Concentration 5.00E-08, replicate 3) was 96.9525 and the “Bc.Ste2 (activation)” value (Bc.Ste2 [5]; Concentration 5.00E-08, replicate 4) was 98.7952. For the same compound, the “Reduction in diploid formation” value (Bc.Ste2 [6]) was “two-fold reduction”, the “Enrichment after mating, reads per million minus library before coculture” value (Bb.Ste2 [7]) was “+7,508 RPM” and the “Enrichment after mating, reads per million minus library before coculture” value (Fg.Ste2 [8]) was “consistently lacking”. For the same compound, the “Enrichment after mating, reads per million minus library before coculture” value (Fo.Ste2 [9]) was “consistently lacking”, the “Enrichment after mating, reads per million minus library before coculture” value (Bc.Ste2 [10]) was “consistently lacking” and the “Fold decline in diploids containing Fo.Ste2” value (Fo.Ste2 [11]) was 0.2 fold. The “Mean 2 (SC + peptide), Fo share of diploids” value (Fo.Ste2 [11]) was 0.087, the “Mean Diff, SC vs. + peptide” value (Fo.Ste2 [11]; n = 3) was 0.4046 and the “barcode qPCR of diploids, Fg.Ste2 x Hj.Pheromone” value (Fg.Ste2 [12]; SC + added peptide, individual replicates (n=3), SC alone: 0.003, 0.004, 0.001) was 0.028 and 0.017 and 0.029. For the same compound, the “barcode qPCR of diploids, Fg.Ste2 x Fo.Pheromone” value (Fg.Ste2 [12]; SC + added peptide, individual replicates (n=3), SC alone: 0.005, 0.005, 0.013) was 0.014 and 0.066 and 0.033, the “barcode qPCR of diploids, Fg.Ste2 x no_Pheromone” value (Fg.Ste2 [12]; SC + added peptide, individual replicates (n=3), SC alone: 0.012, 0.001, 0.003) was 0 and 0.143 and 0.133 and the “barcode qPCR of diploids, Fg.Ste2 x Bb.Pheromone” value (Fg.Ste2 [12]; SC + added peptide, individual replicates (n=3), SC alone: 0.012, 0.009, 0.006) was 0.032 and 0.042 and 0.028. The “barcode qPCR of diploids, Fg.Ste2 x Fg.Pheromone” value (Fg.Ste2 [12]; SC + added peptide, individual replicates (n=3), SC alone: 0.206, 0.237, 0.235) was 0.441 and 0.282 and 0.373, the “Fold increase in diploids containing Fg.Ste2” value (Fg.Ste2 [12]; consortium in SC media, 10 μM external peptide, three biological replicates) was 2.2 fold and the “Mean 2 (SC + peptide), Bb share of diploids” value (Bb.Ste2 [13]) was 0.01767. The “barcode qPCR of diploids, Bb.Ste2 x Fo.Pheromone” value (Bb.Ste2 [13]) was 0.04 and 0.041 and 0.037, the “barcode qPCR of diploids, Bb.Ste2 x no_Pheromone” value (Bb.Ste2 [13]) was 0.037 and 0.028 and 0.049 and the “Mean Diff, SC vs. + peptide” value (Bb.Ste2 [13]; n = 3) was 0.02891. The “Mean 2 (SC + peptide), Hj share of diploids” value (Hj.Hpr2) was 0.004151, the “barcode qPCR of diploids, Hj.HPR2 x Bb.Pheromone” value (Hj.Hpr2) was 0 and the “barcode qPCR of diploids, Hj.HPR2 x Fg.Pheromone” value (Hj.Hpr2) was 0. The “barcode qPCR of diploids, Hj.HPR2 x no_Pheromone” value (Hj.Hpr2) was 0, the “Mean Diff, SC vs. + peptide” value (Hj.Hpr2; n = 3) was -0.002114 and the “barcode qPCR of diploids, no_GPCR x Fg.Pheromone” value ([14]; SC alone: 0, 0, 0) was 0 and 0.032 and 0.007. For the same compound, the “barcode qPCR of diploids, no_GPCR x Hj.Pheromone” value ([14]; SC alone: 0, 0, 0) was 0 (2×) and 0.052, the “barcode qPCR of diploids, no_GPCR x Bb.Pheromone” value ([14]; SC alone: 0, 0, 0.004) was 0 (2×) and 0.005 and the “barcode qPCR of diploids, no_GPCR x Fo.Pheromone” value ([14]; SC alone: 0, 0, 0.007) was 0.005 and 0 (2×). For the same compound, the “barcode qPCR of diploids, no_GPCR x no_Pheromone” value ([14]; SC alone: 0.001, 0.001, 0) was 0.027 and 0.026 and 0.002, the “Sup.Fig.3B Bb.Ste2 biosensor response, group mean” value (Bb.Ste2 [15]) was 1335000 and the “Sup.Fig.3B Fg.Ste2 biosensor response, group mean” value (Fg.Ste2 [16]) was 219822. For the same compound, the “Sup.Fig.3B Fo.Ste2 biosensor response, group mean” value (Fo.Ste2 [17]) was 1377500.
